Source: patent US20260151453A1, “COMBINATION THERAPY FOR THE TREATMENT OF CANCER” (PEPTOMYC, S.L., priority 2022, published 2026)

What was measured:
[1] = test system: MIA-PACA-2 cells; assay: Viability of PDAC MIA-PACA-2 cells treated alone and in combination for 5 days; synergy score by SynergyFinder.org; assay type: cell-based; conditions: MIA-PACA-2, single agent, 5 days (FIG. 2)
Excerpt: Synergy scores can be interpreted as the average excess response due to drug interactions. Synergy scores close to 0 give limited confidence in synergy or antagonism. So, when the synergy scores are: less than −10, the interaction between two drugs is likely to be antagonistic. From −10 to 10, the interaction between two drugs is likely to be additive. Greater than 10, the interaction between two drugs is likely to be synergistic.
Pancreatic ductal adenocarcinoma (PDAC) MIA-PACA-2 cells were treated with increasing concentrations of Olaparib and the Omomyc peptide sequence SEQ ID NO: 4 alone and in combination, for 5 days.
Then synergy score was calculated by SynergyFinder.org after having carried out 3 biological replicates as described above.

[2] = test system: SUM149 cell-derived xenograft (CDX); assay: SUM149 cell-derived xenograft (CDX) model, orthotopic in mammary fat-pad, tumour growth; assay type: in vivo; conditions: SUM149 CDX mice, 4 weeks; Omomyc 50 mg/kg intravenous once a week; Olaparib 50 mg/kg oral gavage 6 times a week; preliminary
Procedure: SUM149 cell-derived xenograft (CDX) model mice were used for in vivo studies. Each mouse was inoculated orthotopically in the mammary fat-pad with 5 million cells. As the tumours reached 100 mm^3, mice were randomised in 4 treatment groups. Specifically, mice were treated with Omomyc once a week (50 mg/kg, intravenous), with Olaparib 6 times a week (50 mg/kg oral gavage), with the combination of the 2 drugs (combo) or with vehicle alone for 4 weeks. Relative volume was calculated as a percentage of tumour growth from the day of randomization and beginning of treatments. At end-point the average of the groups were respectively: vehicle 901.8%, Omomyc 663.6%, Olaparib 623.6%, and combination 335.8%.

## O=C(c1cc(Cc2n[nH]c(=O)c3ccccc23)ccc1F)N1CCN(C(=O)C2CC2)CC1 [Olaparib, reference compound]
[1]
  sensitivity of the cell line to the single agent (viability): particularly resistant
[2]
  Relative volume, percentage of tumour growth from the day of randomization (group average at end-point): 623.6%
